Measurements as given in patent publication EP0018155A2, “Novel cephalosporin compounds, a process for the preparation thereof, pharmaceutical compositions containing the same and the use thereof as a therapeutic agent against a microorganism” (NOVO NORDISK A/S, priority 1979, dated 1980).
Values after ≈ are worked out from the molar mass of the structure shown. Like-named read-outs stand apart in the source and are kept apart here.

What was measured:
Test in all cases: agar serial dilution test (MIC)
Type in all cases: cell-based
[1] = tested on: E. coli 01
Description: (§1) The antibiotic activity in vitro of some compounds according to the invention and of some previously known compounds was tested by means of an agar serial dilution test. The following compounds were tested: 7β-[2-(2-Aminothiazol-4-yl)-2-diethylphosphoryloxyiminoacetamido] cephalosporanic acid (designated ES 643, 7β-[2-(2-amino- thiazol-4-yl)-2-dimethylphosphoryloxyiminoacetamido] cephalosporanic acid (designated ES 671), 7β-[2-(2-amino- thiazol-4-yl)-2-dimorpholinophosphoryloxyiminoacetamido] cephalosporanic acid (designated ES 656), 7β-[2-(2-amino- thiazol-4-yl)-2-methylmethylphosphonyloxyiminoacetamido] cephalosporanic acid (designated ES 682), 7β-[2-(2-amino- thiazol-4-yl)-2-hydroxyiminoacetamido] cephalosporanic acid (designated A), cefuroxime (designated B), and cephalotin (designated C). MIC designates minimum inhibitory concentration.

[2] = tested on: E. coli 04
Description: as §1

[3] = tested on: K. edwardsii K1
Description: as §1

[4] = tested on: K. pneumoniae K8; details: Klebsiella pneumoniae
Description: as §1

[5] = tested on: P. mirabilis 2255
Description: as §1

[6] = tested on: P. mirabilis 2311
Description: as §1

[7] = tested on: P. mirabilis 682
Description: as §1

[8] = tested on: P. morganii 18
Description: as §1

[9] = tested on: P. morganii 69
Description: as §1

[10] = tested on: P. vulgaris 16868
Description: as §1

[11] = tested on: P. vulgaris 17028
Description: as §1

[12] = tested on: P. vulgaris 5209
Description: as §1

[13] = tested on: S. albus 12228
Description: as §1

[14] = tested on: S. albus 3348
Description: as §1

[15] = tested on: S. albus 3578
Description: as §1

[16] = tested on: S. aureus 13709
Description: as §1

[17] = tested on: S. aureus 209P; details: Staphylococcus aureus
Description: as §1

[18] = tested on: S. aureus 3349
Description: as §1

[19] = tested on: S. aureus 3356
Description: as §1

[20] = tested on: S. pyogenes 12334
Description: as §1

[21] = tested on: S. pyogenes 12384
Description: as §1

[22] = Escherichia coli, E. coli 01, read-out: MIC value
[23] = Escherichia coli, E. coli 04, read-out: MIC value
[24] = K. edwardsii K1, read-out: MIC value
[25] = K. pneumoniae K8, read-out: MIC value
[26] = Proteus mirabilis, P. mirabilis 2255, read-out: MIC value
[27] = Proteus mirabilis, P. mirabilis 2311, read-out: MIC value
[28] = Proteus mirabilis, P. mirabilis 682, read-out: MIC value
[29] = Morganella morganii, P. morganii 18, read-out: MIC value
[30] = Morganella morganii, P. morganii 69, read-out: MIC value
[31] = Proteus vulgaris, P. vulgaris 16868, read-out: MIC value
[32] = Proteus vulgaris, P. vulgaris 17028, read-out: MIC value
[33] = Proteus vulgaris, P. vulgaris 5209, read-out: MIC value
[34] = Staphylococcus albus, S. albus 12228, read-out: MIC value
[35] = Staphylococcus albus, S. albus 3348, read-out: MIC value
[36] = Staphylococcus albus, S. albus 3578, read-out: MIC value
[37] = Staphylococcus aureus, S. aureus 13709, read-out: MIC value
[38] = S. aureus 209P, read-out: MIC value
[39] = Staphylococcus aureus, S. aureus 3349*, penicillin-resistant strain, read-out: MIC value
[40] = Staphylococcus aureus, S. aureus 3356*, penicillin-resistant strain, read-out: MIC value
[41] = Streptococcus pyogenes, S. pyogenes 12334, read-out: MIC value
[42] = Streptococcus pyogenes, S. pyogenes 12384, read-out: MIC value

CC(=O)OCC1=C(C(=O)O)N2C(=O)C(NC(=O)C(=NOP(=O)(N3CCOCC3)N3CCOCC3)c3csc(N)n3)C2SC1 (stereo not drawn) [ES 656, 7β-[2-(2-amino-thiazol-4-yl)-2-dimorpholinophosphoryloxyiminoacetamido] cephalosporanic acid]
MIC [1, 22]: < 0.1 µg/mL
MIC [2, 23]: 0.2 µg/mL (≈ 0.303 µM)
MIC [3, 24]: 1.6 µg/mL (≈ 2.43 µM)
MIC [4, 25]: 0.4 µg/mL (≈ 0.606 µM)
MIC [5, 26]: 0.2 µg/mL (≈ 0.303 µM)
MIC [6, 27]: 0.2 µg/mL (≈ 0.303 µM)
MIC [7, 28]: < 0.1 µg/mL
MIC [8, 29]: 1.6 µg/mL (≈ 2.43 µM)
MIC [9, 30]: 3.1 µg/mL (≈ 4.7 µM)
MIC [10, 31]: 12.5 µg/mL (≈ 18.9 µM)
MIC [11, 32]: 25 µg/mL (≈ 37.9 µM)
MIC [12, 33]: 50 µg/mL (≈ 75.8 µM)
MIC [13, 34]: 0.2 µg/mL (≈ 0.303 µM)
MIC [14, 35]: 0.2 µg/mL (≈ 0.303 µM)
MIC [15, 36]: 0.2 µg/mL (≈ 0.303 µM)
MIC [16, 37]: 0.2 µg/mL (≈ 0.303 µM)
MIC [17, 38]: 0.2 µg/mL (≈ 0.303 µM)
MIC [18, 39]: 0.4 µg/mL (≈ 0.606 µM)
MIC [19, 40]: 0.2 µg/mL (≈ 0.303 µM)
MIC [20, 41]: < 0.1 µg/mL
MIC [21, 42]: < 0.1 µg/mL

CO/N=C(\C(=O)N[C@@H]1C(=O)N2C(C(=O)O)=C(COC(N)=O)CS[C@H]12)c1ccco1 [B, cefuroxime, reference compound]
MIC [1, 22]: 3.1 µg/mL (≈ 7.3 µM)
MIC [2, 23]: 6.2 µg/mL (≈ 14.6 µM)
MIC [3, 24]: 6.2 µg/mL (≈ 14.6 µM)
MIC [4, 25]: 12.5 µg/mL (≈ 29.5 µM)
MIC [5, 26]: 1.6 µg/mL (≈ 3.77 µM)
MIC [6, 27]: 0.8 µg/mL (≈ 1.89 µM)
MIC [7, 28]: 3.1 µg/mL (≈ 7.3 µM)
MIC [8, 29]: 25 µg/mL (≈ 58.9 µM)
MIC [9, 30]: 25 µg/mL (≈ 58.9 µM)
MIC [10, 31]: > 100 µg/mL
MIC [11, 32]: > 100 µg/mL
MIC [12, 33]: > 100 µg/mL
MIC [13, 34]: 0.4 µg/mL (≈ 0.943 µM)
MIC [14, 35]: 0.2 µg/mL (≈ 0.471 µM)
MIC [15, 36]: 0.2 µg/mL (≈ 0.471 µM)
MIC [16, 37]: 0.8 µg/mL (≈ 1.89 µM)
MIC [17, 38]: 1.6 µg/mL (≈ 3.77 µM)
MIC [18, 39]: 0.8 µg/mL (≈ 1.89 µM)
MIC [19, 40]: 0.8 µg/mL (≈ 1.89 µM)
MIC [20, 41]: < 0.1 µg/mL
MIC [21, 42]: < 0.1 µg/mL

COP(=O)(OC)ON=C(C(=O)NC1C(=O)N2C(C(=O)O)=C(COC(C)=O)CSC12)c1csc(N)n1 (stereo not drawn) [ES 671, 7β-[2-(2-amino-thiazol-4-yl)-2-dimethylphosphoryloxyiminoacetamido] cephalosporanic acid]
MIC ([1]; Escherichia coli, 01, read-out: MIC value in μg/ml): 0.2 µg/mL (≈ 0.364 µM)
MIC ([2]; Escherichia coli, 04, read-out: MIC value in μg/ml): 0.4 µg/mL (≈ 0.728 µM)
MIC ([3]; read-out: MIC value in μg/ml): 0.2 µg/mL (≈ 0.364 µM)
MIC ([4]; K8, read-out: MIC value in μg/ml): 0.4 µg/mL (≈ 0.728 µM)
MIC ([5]; Proteus mirabilis, 2255, read-out: MIC value in μg/ml): 0.1 µg/mL (≈ 0.182 µM)
MIC ([6]; Proteus mirabilis, 2311, read-out: MIC value in μg/ml): < 0.1 µg/mL
MIC ([7]; Proteus mirabilis, 682, read-out: MIC value in μg/ml): < 0.1 µg/mL
MIC ([8]; Morganella morganii, 18, read-out: MIC value in μg/ml): < 0.1 µg/mL
MIC ([9]; Morganella morganii, 69, read-out: MIC value in μg/ml): 0.4 µg/mL (≈ 0.728 µM)
MIC ([10]; Proteus vulgaris, 16868, read-out: MIC value in μg/ml): < 0.1 µg/mL
MIC ([11]; Proteus vulgaris, 17028, read-out: MIC value in μg/ml): < 0.1 µg/mL
MIC ([12]; Proteus vulgaris, 5209, read-out: MIC value in μg/ml): 0.2 µg/mL (≈ 0.364 µM)
MIC ([13]; Staphylococcus albus, 12228, read-out: MIC value in μg/ml): 0.4 µg/mL (≈ 0.728 µM)
MIC ([14]; Staphylococcus albus, 3348, read-out: MIC value in μg/ml): 0.8 µg/mL (≈ 1.46 µM)
MIC ([15]; Staphylococcus albus, 3578, read-out: MIC value in μg/ml): 0.8 µg/mL (≈ 1.46 µM)
MIC ([16]; Staphylococcus aureus, 13709, read-out: MIC value in μg/ml): 1.6 µg/mL (≈ 2.91 µM)
MIC ([17]; 209P, read-out: MIC value in μg/ml): 3.1 µg/mL (≈ 5.64 µM)
MIC ([18]; Staphylococcus aureus, 3349, read-out: MIC value in μg/ml): 1.6 µg/mL (≈ 2.91 µM)
MIC ([19]; Staphylococcus aureus, 3356, read-out: MIC value in μg/ml): 1.6 µg/mL (≈ 2.91 µM)
MIC ([20]; Streptococcus pyogenes, 12334, read-out: MIC value in μg/ml): < 0.1 µg/mL
MIC ([21]; Streptococcus pyogenes, 12384, read-out: MIC value in μg/ml): < 0.1 µg/mL
